From patent US9714231B2, “Pyrrolidine GPR40 modulators” (BRISTOL-MYERS SQUIBB COMPANY, priority 2012, dated 2017)
Counter-ions that a name gives are not always drawn. Like-named read-outs stand apart in the source and are kept apart here.

Experiments:
human GPR40 [1] = molecular target: T1, human GPR40 (Homo sapiens, UniProt O14842); experiment: FDSS-based intracellular calcium assay (Human GRP40 in vitro assay); type: cell-based; parameters: 3xFLAG; expressed in transfected cells; conditions: cells expressing GPR40, intracellular Ca2+ response, FDSS reader; read-out: hGPR40 EC50
T1 sequence (O14842 whole entry): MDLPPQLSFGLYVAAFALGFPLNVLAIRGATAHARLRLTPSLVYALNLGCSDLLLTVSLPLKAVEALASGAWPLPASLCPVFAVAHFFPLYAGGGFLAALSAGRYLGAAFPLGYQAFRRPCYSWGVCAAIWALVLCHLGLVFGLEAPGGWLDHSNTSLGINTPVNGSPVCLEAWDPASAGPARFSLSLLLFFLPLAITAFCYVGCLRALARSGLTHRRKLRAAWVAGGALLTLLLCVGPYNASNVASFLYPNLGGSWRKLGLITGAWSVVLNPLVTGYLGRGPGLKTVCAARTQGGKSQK
In short: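 GPR40-expressing cells, plated overnight in serum-free phenol red-free DMEM, loaded with Fluo-3 in HBSS with 1.7 mM probenecid for 30 min at 37° C. Compounds in DMSO, diluted in assay buffer, added as 3× solutions; intracellular Ca^2+ response read on FDSS.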

human GPR40 [2] = molecular target: T1, human GPR40

| SMILES | EC50 (human GPR40 [1]) [nM] | EC50 (human GPR40 [2]) [nM] |
| --- | --- | --- |
| CCOc1ccc(F)c(N2CCC(Oc3ccc(N4C[C@H](c5ccc(OC)nc5)C[C@@H]4CC(=O)O)cc3)CC2)c1 [Example 123, 2-((2R,4S)-1-(4-((1-(5-Ethoxy-2-fluorophenyl)piperidin-4-yl)oxy)phenyl)-4-(6-methoxypyridin-3-yl)pyrrolidin-2-yl)acetic acid, TFA] | 270 | 51 |
| COc1ccc(F)c(N2CCC(Oc3ccc(N4C[C@H](OC)C[C@@H]4CC(=O)O)cc3)C(C)C2)c1 (single isomer, unassigned) [Example 52, Isomer 2] | 600 | 140 |
| COc1cc(N2CCC(Oc3cc(F)c(N4C[C@H](OC)C[C@@H]4CC(=O)O)c(F)c3)C(C)C2)c(Cl)cn1 (stereo partly drawn) [Example 144, 2-((2R,4R)-1-(4-((3,4-trans)-1-(5-Chloro-2-methoxypyridin-4-yl)-3-methylpiperidin-4-yloxy)-2,6-difluorophenyl)-4-methoxypyrrolidin-2-yl)acetic acid, TFA] | 3400 | 2500 |
| COc1cc(N2CCC(Oc3ccc(N4C[C@H](C(F)(F)F)C[C@@H]4CC(=O)O)cn3)C(C)C2)c(Cl)cn1 (stereo partly drawn) [Example 133, 2-((2R,4R)-1-(6-(((3,4-trans)-1-(5-Chloro-2-methoxypyridin-4-yl)-3-methylpiperidin-4-yl)oxy)pyridin-3-yl)-4-(trifluoromethyl)pyrrolidin-2-yl)acetic acid] | 380 | 49 |
| CCOc1ccc(F)c(N2CCC(Oc3ccc(N4C[C@H](Cc5cccc(OC)c5)C[C@@H]4CC(=O)O)cc3)CC2)c1 [Example 124, 2-((2R,4R)-1-(4-((1-(5-Ethoxy-2-fluorophenyl)piperidin-4-yl)oxy)phenyl)-4-(3-methoxybenzyl)pyrrolidin-2-yl)acetic acid, TFA] | 380 | 47 |
| COc1cc(N2CCC(Cc3ccc(N4C[C@H](OC)C[C@@H]4CC(=O)O)cc3)CC2)c(Cl)cn1 [Example 102, 2-((2R,4R)-1-(4-((1-(5-Chloro-2-methoxypyridin-4-yl)piperidin-4-yl)methyl)phenyl)-4-methoxypyrrolidin-2-yl)acetic acid] | 952 | 950 |
| COc1ccc(F)c(N2CCC(Oc3ccc(N4CC(C(F)(F)F)C(C)C4CC(=O)O)cc3)CC2)c1 (single isomer, unassigned) [Example 26, Isomer 1, 2-((2,3-trans,3,4-trans)-1-(4-((1-(2-Fluoro-5-methoxyphenyl)piperidin-4-yl)oxy)phenyl)-3-methyl-4-(trifluoromethyl)pyrrolidin-2-yl)acetic acid, HCl] | 220 | 140 |
| COc1cc(N2CCC(Oc3ccc(N4C[C@H](OC)C[C@@H]4CC(=O)O)cc3)CC2)c(F)cn1 [Example 96, 2-((2R,4R)-1-(4-((1-(5-Fluoro-2-methoxypyridin-4-yl)piperidin-4-yl)oxy)phenyl)-4-methoxypyrrolidin-2-yl)acetic acid, diethylammonium salt] | 840 | 520 |
| COc1cc(N2CCC(Oc3ccc(N4C[C@H](C(F)(F)F)C[C@@H]4CC(=O)O)c(F)c3F)C(C)C2)c(Cl)cn1 (stereo partly drawn) [Example 140, 2-((2R,4R)-1-(4-((3,4-trans)-1-(5-Chloro-2-methoxypyridin-4-yl)-3-methylpiperidin-4-yloxy)-2,3-difluorophenyl)-4-(trifluoromethyl)pyrrolidin-2-yl)acetic acid] | 250 | 72 |
| COc1cc(N2CCC(Oc3ccc(N4C[C@H](OC)[C@@H](C)[C@@H]4CC(=O)O)cc3F)CC2)c(Cl)cn1 [Example 99, 2-((2S,3S,4R)-1-(4-((1-(5-Chloro-2-methoxypyridin-4-yl)piperidin-4-yl)oxy)-3-fluorophenyl)-4-methoxy-3-methylpyrrolidin-2-yl)acetic acid] | 289 | 290 |

The next molecules have a lower EC50 (human GPR40 [1]) than those just listed; values first:

| EC50 (human GPR40 [1]) [nM] | EC50 (human GPR40 [2]) [nM] | SMILES |
| --- | --- | --- |
| 69 | 73 | COc1ccc(F)c(N2CCC(Oc3ccc(N4C[C@H](OC(C)C)C[C@@H]4CC(=O)O)cc3)C(C)C2)c1 (stereo partly drawn) [Example 38, 2-((2R,4R)-1-(4-(((3,4-trans)-1-(2-Fluoro-5-methoxyphenyl)-3-methylpiperidin-4-yl)oxy)phenyl)-4-isopropoxypyrrolidin-2-yl)acetic acid, TFA] |
| 38 | 4 | COc1cc(N2CCC(Oc3ccc(N4C[C@H](OC)[C@@H](C)[C@@H]4CC(=O)O)cn3)CC2)c(C2CCCC2(C)C)cn1 (single isomer, unassigned) [Example 151, Isomer 1, HCl] |
| 160 | 83 | COc1ccc(C)c(N2CCC(Oc3ccc(N4C[C@H](OC)C[C@@H]4CC(=O)O)cc3)CC2)c1 [Example 57, 2-((2R,4R)-4-Methoxy-1-(4-((1-(5-methoxy-2-methylphenyl)piperidin-4-yl)oxy)phenyl)pyrrolidin-2-yl)acetic acid, TFA] |
| 120 | 16 | COc1ccc(C2CCCC2)c(N2CCC(Oc3ccc(N4C[C@H](OC)C[C@@H]4CC(=O)O)cc3)CC2)c1 [Example 61, 2-((2R,4R)-1-(4-(1-(2-Cyclopentyl-5-methoxyphenyl)piperidin-4-yloxy)phenyl)-4-methoxypyrrolidin-2-yl)acetic acid] |
| 190 | 18 | COc1cc(N2CCC(Oc3ccc(N4C[C@H](OC)[C@@H](C)[C@@H]4CC(=O)O)cn3)C(C)C2)c(Cl)cn1 (stereo partly drawn) [Example 91, 2-((2S,3S,4R)-1-(6-(((3,4-trans)-1-(5-Chloro-2-methoxypyridin-4-yl)-3-methylpiperidin-4-yl)oxy)pyridin-3-yl)-4-methoxy-3-methylpyrrolidin-2-yl)acetic acid, HCl] |
| 75 | 11 | COc1cc(N2CCC(Oc3ccc(N4C[C@H](OC)[C@@H](C)[C@@H]4CC(=O)O)cc3)C(C)C2)c(Cl)cn1 (stereo partly drawn) [Example 119, 2-((2S,3S,4R)-1-(4-(((3,4-trans)-1-(5-Chloro-2-methoxypyridin-4-yl)-3-methylpiperidin-4-yl)oxy)phenyl)-4-methoxy-3-methylpyrrolidin-2-yl)acetic acid, HCl] |
| 49 | 49 | COc1ccc(F)c(N2CCC(Oc3ccc(N4CC(F)(F)C[C@@H]4CC(=O)O)cc3)C(C)C2)c1 (single isomer, unassigned) [Example 53, Isomer 2, HCl] |
| 140 | 14 | CCOc1ccc(F)c(N2CCC(Oc3ccc(N4C[C@H](OC)[C@@H](C)[C@@H]4CC(=O)O)cn3)C(C)C2)c1 (stereo partly drawn) [Example 117, 2-((2S,3S,4R)-1-(6-(((3,4-trans)-1-(5-Ethoxy-2-fluorophenyl)-3-methylpiperidin-4-yl)oxy)pyridin-3-yl)-4-methoxy-3-methylpyrrolidin-2-yl)acetic acid, HCl] |
| 190 | 27 | COc1cc(N2CCC(Oc3ccc(N4C[C@H](C(F)(F)F)C[C@@H]4CC(=O)O)c(F)c3)C(C)C2)c(Cl)cn1 (some centres unmarked) [Example 138] |
